Experimental data from US8163724B2, “Glucocorticosteroids, processes for their preparation, pharmaceutical compositions containing them and their use in therapy” (AstraZeneca AB, priority 2007, dated 2012).

What follows are compounds tested against T1, recombinant human GR (Homo sapiens, UniProt P04150) (assay: Human Glucocorticoid Receptor (GR) Assay (fluorescence polarization, Panvera/Invitrogen kit)). Conditions: fluorescence polarization; GS Red tracer; 2 hours at room temperature; 100% control 10 μM Dexamethasone; read-out: Inhibition of GR binding, IC50.
T1 construct: purchased Panvera/Invitrogen P2812 (kit P2893)
T1 sequence (P04150 1-777): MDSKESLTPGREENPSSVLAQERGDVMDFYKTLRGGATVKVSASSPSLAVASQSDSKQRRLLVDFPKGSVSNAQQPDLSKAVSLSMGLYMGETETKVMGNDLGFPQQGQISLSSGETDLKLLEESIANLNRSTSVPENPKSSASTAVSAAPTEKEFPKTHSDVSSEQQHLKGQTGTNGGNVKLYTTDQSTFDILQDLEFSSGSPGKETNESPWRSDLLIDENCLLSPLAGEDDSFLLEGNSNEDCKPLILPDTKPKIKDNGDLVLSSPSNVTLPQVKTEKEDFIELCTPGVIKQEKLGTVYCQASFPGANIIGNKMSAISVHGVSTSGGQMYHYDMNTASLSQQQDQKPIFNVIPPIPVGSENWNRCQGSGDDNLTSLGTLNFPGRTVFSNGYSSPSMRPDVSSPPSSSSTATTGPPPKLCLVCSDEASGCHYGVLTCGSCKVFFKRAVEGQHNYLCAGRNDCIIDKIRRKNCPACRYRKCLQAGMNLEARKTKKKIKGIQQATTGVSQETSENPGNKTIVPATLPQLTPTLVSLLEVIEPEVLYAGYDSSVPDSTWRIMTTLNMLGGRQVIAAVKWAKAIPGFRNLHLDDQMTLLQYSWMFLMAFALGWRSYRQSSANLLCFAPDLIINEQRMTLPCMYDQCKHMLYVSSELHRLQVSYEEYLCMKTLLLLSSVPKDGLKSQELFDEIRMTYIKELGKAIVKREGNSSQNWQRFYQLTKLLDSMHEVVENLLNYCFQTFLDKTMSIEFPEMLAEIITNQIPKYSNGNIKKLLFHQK
Assay type: binding
Procedure, shortened: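 Fluorescence polarization competition with recombinant GR and GS Red fluorescent ligand plus stabilizing peptide and DTT in potassium phosphate/sodium molybdate/EDTA buffer with DMSO. Incubated 2 hours at room temperature in the dark; 0% control DMSO, 100% control 10 μM dexamethasone.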

SMILES | IC50
COCC(=O)O[C@]1(C(=O)SC)CC[C@H]2[C@@H]3CCC4=Cc5c(cnn5-c5ccc(F)nc5)C[C@]4(C)[C@H]3[C@@H](O)C[C@@]21C [Example 157, (1R,3aS,3bS,10aR,10bS,11S,12aS)-7-(6-Fluoropyridin-3-yl)-11-hydroxy-10a,12a-dimethyl-1-[(methylsulfanyl)carbonyl]-1,2,3,3a,3b,4,5,7,10,10a,10b,11,12,12a-tetradecahydrocyclopenta[5,6]naphtho[1,2-f]indazol-1-yl Methoxyacetate] | 1.1 nM
COCSC(=O)[C@@]1(OC(=O)COC)CC[C@H]2[C@@H]3CCC4=Cc5c(cnn5-c5ccc(F)nc5)C[C@]4(C)[C@H]3[C@@H](O)C[C@@]21C [Example 158, (1R,3aS,3bS,10aR,10bS,11S,12aS)-7-(6-Fluoropyridin-3-yl)-11-hydroxy-1-{[(methoxymethyl)sulfanyl]carbonyl}-10a,12a-dimethyl-1,2,3,3a,3b,4,5,7,10,10a,10b,11,12,12a-tetradecahydrocyclopenta[5,6]naphtho[1,2-f]indazol-1-yl methoxyacetate] | 2.4 nM
COCC(=O)O[C@]1(C(=O)SCCO)CC[C@H]2[C@@H]3CCC4=Cc5c(cnn5-c5ccc(F)nc5)C[C@]4(C)[C@H]3[C@@H](O)C[C@@]21C [Example 159, (1R,3aS,3bS,10aR,10bS,11S,12aS)-7-(6-Fluoropyridin-3-yl)-11-hydroxy-1-{[(2-hydroxyethyl)sulfanyl]carbonyl}-10a,12a-dimethyl-1,2,3,3a,3b,4,5,7,10,10b,11,12,12a-tetradecahydrocyclopenta[5,6]naphtho[1,2-f]indazol-1-yl methoxyacetate] | 3.6 nM
C[C@]12Cc3cnn(-c4ccc(F)nc4)c3C=C1CC[C@@H]1[C@@H]2[C@@H](O)C[C@@]2(C)[C@H]1CC[C@]2(OC(=O)c1cocn1)C(=O)SCC#N [Example 160, (1R,3aS,3bS,10aR,10bS,11S,12aS)-1-{[(Cyanomethyl)sulfanyl]carbonyl}-7-(6-fluoropyridin-3-yl)-11-hydroxy-10a,12a-dimethyl-1,2,3,3a,3b,4,5,7,10,10a,10b,11,12,12a-tetradecahydrocyclopenta[5,6]naphtho[1,2-f]indazol-1-yl 1,3-oxazole-4-carboxylate] | 2.1 nM
CSC(=O)[C@@]1(OC(=O)c2cocn2)CC[C@H]2[C@@H]3CCC4=Cc5c(cnn5-c5ccc(F)nc5)C[C@]4(C)[C@H]3[C@@H](O)C[C@@]21C [Example 161, (1R,3aS,3bS,10aR,10bS,11S,12aS)-7-(6-Fluoropyridin-3-yl)-11-hydroxy-10a,12a-dimethyl-1-[(methylsulfanyl)carbonyl]-1,2,3,3a,3b,4,5,7,10,10a,10b,11,12,12a-tetradecahydrocyclopenta[5,6]naphtho[1,2-f]indazol-1-yl 1,3-oxazole-4-carboxylate] | 1.3 nM
C[C@]12Cc3cnn(-c4ccc(F)nc4)c3C=C1CC[C@@H]1[C@@H]2[C@@H](O)C[C@@]2(C)[C@H]1CC[C@]2(OC(=O)c1cocn1)C(=O)SCCO [Example 162, (1R,3aS,3bS,10aR,10bS,11S,12aS)-7-(6-Fluoropyridin-3-yl)-11-hydroxy-1-{[(2-hydroxyethyl)sulfanyl]carbonyl}-10a,12a-dimethyl-1,2,3,3a,3b,4,5,7,10,10a,10b,11,12,12a-tetradecahydrocyclopenta[5,6]naphtho[1,2-f]indazol-1-yl 1,3-oxazole-4-carboxylate] | 1.8 nM
COCSC(=O)[C@@]1(OC(=O)c2cocn2)CC[C@H]2[C@@H]3CCC4=Cc5c(cnn5-c5ccc(F)nc5)C[C@]4(C)[C@H]3[C@@H](O)C[C@@]21C [Example 163, (1R,3aS,3bS,10aR,10bS,11S,12aS)-7-(6-Fluoropyridin-3-yl)-11-hydroxy-1-{[(methoxymethyl)sulfanyl]carbonyl}-10a,12a-dimethyl-1,2,3,3a,3b,4,5,7,10,10a,10b,11,12,12a-tetradecahydrocyclopenta[5,6]naphtho[1,2-f]indazol-1-yl 1,3-oxazole-4-carboxylate] | 1.7 nM
C[C@]12Cc3cnn(-c4ccc(F)nc4)c3C=C1CC[C@@H]1[C@@H]2[C@@H](O)C[C@@]2(C)[C@H]1CC[C@]2(O)C(=O)SCC#N [Example 164, S-(Cyanomethyl)(1R,3aS,3bS,10aR,10bS,11S,12aS)-7-(6-fluoropyridin-3-yl)-1,11-dihydroxy-10a,12a-dimethyl-1,2,3,3a,3b,4,5,7,10,10a,10b,11,12,12a-tetradecahydrocyclopenta[5,6]naphtho[1,2-f]indazole-1-carbothioate] | 1.4 nM
CSC(=O)[C@@]1(O)CC[C@H]2[C@@H]3CCC4=Cc5c(cnn5-c5ccc(F)nc5)C[C@]4(C)[C@H]3[C@@H](O)C[C@@]21C [Example 165, S-Methyl(1R,3aS,3bS,10aR,10bS,11S,12aS)-7-(6-fluoropyridin-3-yl)-1,11-dihydroxy-10a,12a-dimethyl-1,2,3,3a,3b,4,5,7,10,10a,10b,11,12,12a-tetradecahydrocyclopenta[5,6]naphtho[1,2-f]indazole-1-carbothioate] | 3.8 nM
C[C@]12Cc3cnn(-c4ccc(F)nc4)c3C=C1CC[C@@H]1[C@@H]2[C@@H](O)C[C@@]2(C)[C@H]1CC[C@]2(OC(=O)c1ccco1)C(=O)SCC#N [Example 166, (1R,3aS,3bS,10aR,10bS,11S,12aS)-1-{[(Cyanomethyl)sulfanyl]carbonyl}-7-(6-fluoropyridin-3-yl)-11-hydroxy-10a,12a-dimethyl-1,2,3,3a,3b,4,5,7,10,10a,10b,11,12,12a-tetradecahydrocyclopenta[5,6]naphtho[1,2-f]indazol-1-yl furan-2-carboxylate] | 5.8 nM
CSC(=O)[C@@]1(OC(=O)c2ccco2)CC[C@H]2[C@@H]3CCC4=Cc5c(cnn5-c5ccc(F)nc5)C[C@]4(C)[C@H]3[C@@H](O)C[C@@]21C [Example 167, (1R,3aS,3bS,10aR,10bS,11S,12aS)-7-(6-Fluoropyridin-3-yl)-11-hydroxy-10a,12a-dimethyl-1-[(methylsulfanyl)carbonyl]-1,2,3,3a,3b,4,5,7,10,10a,10b,11,12,12a-tetradecahydrocyclopenta[5,6]naphtho[1,2-f]indazol-1-yl furan-2-carboxylate] | 5.6 nM
C[C@]12Cc3cnn(-c4ccc(F)nc4)c3C=C1CC[C@@H]1[C@@H]2[C@@H](O)C[C@@]2(C)[C@H]1CC[C@]2(OC(=O)c1ccco1)C(=O)SCCO [Example 168, (1R,3aS,3bS,10aR,10bS,11S,12aS)-7-(6-Fluoropyridin-3-yl)-11-hydroxy-1-{[(2-hydroxyethyl)sulfanyl]carbonyl}-10a,12a-dimethyl-1,2,3,3a,3b,4,5,7,10,10a,10b,11,12,12a-tetradecahydrocyclopenta[5,6]naphtho[1,2-f]indazol-1-yl furan-2-carboxylate] | 5.3 nM
CCC(=O)O[C@]1(C(=O)SCC#N)CC[C@H]2[C@@H]3CCC4=Cc5c(cnn5-c5ccc(F)c(C(=O)SCC#N)c5)C[C@]4(C)[C@H]3[C@@H](O)C[C@@]21C [Example 174, (1R,3aS,3bS,10aR,10bS,11S,12aS)-1-{[(Cyanomethyl)sulfanyl]carbonyl}-7-(3-{[(cyanomethyl)sulfanyl]carbonyl}-4-fluorophenyl)-11-hydroxy-10a,12a-dimethyl-1,2,3,3a,3b,4,5,7,10,10a,10,12,12a-tetradecahydrocyclopenta[5,6]naphtho[1,2-f]indazol-1-yl propanoate] | 34 nM
CCC(=O)O[C@]1(C(=O)SC)CC[C@H]2[C@@H]3CCC4=Cc5c(cnn5-c5ccc(F)c(C(=O)SC)c5)C[C@]4(C)[C@H]3[C@@H](O)C[C@@]21C [Example 175, (1R,3aS,3bS,10aR,10bS,11S,12aS)-7-{4-Fluoro-3-[(methylsulfanyl)carbonyl]phenyl}-11-hydroxy-10a,12a-dimethyl-1-[(methylsulfanyl)carbonyl]-1,2,3,3a,3b,4,5,7,10,10a,10b,11,12,12a-tetradecahydrocyclopenta[5,6]naphtho[1,2-f]indazol-1-yl propanoate] | 18 nM
Cn1cccc1C(=O)O[C@]1(C(=O)SCC#N)CC[C@H]2[C@@H]3CCC4=Cc5c(cnn5-c5ccc(F)cc5)C[C@]4(C)[C@H]3[C@@H](O)C[C@@]21C [Example 176, (1R,3aS,3bS,10aR,10bS,11S,12aS)-1-{[(Cyanomethyl)thio]carbonyl}-7-(4-fluorophenyl)-11-hydroxy-10a,12a-dimethyl-1,2,3,3a,3b,4,5,7,10,10a,10b,11,12,12a-tetradecahydrocyclopenta[5,6]naphtho[1,2-f]indazol-1-yl 1-methyl-1H-pyrrole-2-carboxylate] | 11 nM
